Active and inactive are the calls of the source. No cut-off for these calls is given here.
Columns and labels:
A549 = test: Antiproliferative activity against human A549 cells assessed as reduction in cell viability incubated for 2 days by MTT assay; type: functional, cell-based; settings: A549, 48 h
KB = test: Antiproliferative activity against human KB cells assessed as reduction in cell viability incubated for 2 days by MTT assay; type: functional, cell-based; settings: 48 h
[1] = Cytotoxicity against human L02 cells assessed as reduction in cell viability incubated for 2 days by MTT assay; type: toxicity, cell-based
NCI-H460 = test: Antiproliferative activity against human NCI-H460 cells assessed as reduction in cell viability incubated for 2 days by MTT assay; type: functional, cell-based; settings: NCI-H460, 48 h
4T1 = test: Antiproliferative activity against mouse 4T1 cells assessed as reduction in cell viability incubated for 2 days by MTT assay; type: functional, cell-based; settings: 4T1, 48 h
U-87 MG = test: Antiproliferative activity against human U-87 MG cells assessed as reduction in cell viability incubated for 2 days by MTT assay; type: functional, cell-based, U-87MG ATCC; settings: 48 h
MDA-MB-231 = test: Antiproliferative activity against human MDA-MB-231 cells assessed as reduction in cell viability incubated for 2 days by MTT assay; type: functional, cell-based; settings: MDA-MB-231, 48 h
MIA PaCa-2 = test: Antiproliferative activity against human MIA PaCa-2 cells assessed as reduction in cell viability incubated for 2 days by MTT assay; type: functional, cell-based; settings: MIA PaCa-2, 48 h
MCF7 = test: Antiproliferative activity against human MCF7 cells assessed as reduction in cell viability incubated for 2 days by MTT assay; type: functional, cell-based; settings: MCF7, 48 h
HCT-116 = test: Antiproliferative activity against human HCT-116 cells assessed as reduction in cell viability incubated for 2 days by MTT assay; type: functional, cell-based; settings: HCT-116, 48 h
[2] = molecular target: T1, Far upstream element-binding protein 2 (Homo sapiens) (UniProt Q92945); test: Binding affinity to recombinant full-length KSRP (unknown origin) by SPR analysis
T1 sequence (whole entry): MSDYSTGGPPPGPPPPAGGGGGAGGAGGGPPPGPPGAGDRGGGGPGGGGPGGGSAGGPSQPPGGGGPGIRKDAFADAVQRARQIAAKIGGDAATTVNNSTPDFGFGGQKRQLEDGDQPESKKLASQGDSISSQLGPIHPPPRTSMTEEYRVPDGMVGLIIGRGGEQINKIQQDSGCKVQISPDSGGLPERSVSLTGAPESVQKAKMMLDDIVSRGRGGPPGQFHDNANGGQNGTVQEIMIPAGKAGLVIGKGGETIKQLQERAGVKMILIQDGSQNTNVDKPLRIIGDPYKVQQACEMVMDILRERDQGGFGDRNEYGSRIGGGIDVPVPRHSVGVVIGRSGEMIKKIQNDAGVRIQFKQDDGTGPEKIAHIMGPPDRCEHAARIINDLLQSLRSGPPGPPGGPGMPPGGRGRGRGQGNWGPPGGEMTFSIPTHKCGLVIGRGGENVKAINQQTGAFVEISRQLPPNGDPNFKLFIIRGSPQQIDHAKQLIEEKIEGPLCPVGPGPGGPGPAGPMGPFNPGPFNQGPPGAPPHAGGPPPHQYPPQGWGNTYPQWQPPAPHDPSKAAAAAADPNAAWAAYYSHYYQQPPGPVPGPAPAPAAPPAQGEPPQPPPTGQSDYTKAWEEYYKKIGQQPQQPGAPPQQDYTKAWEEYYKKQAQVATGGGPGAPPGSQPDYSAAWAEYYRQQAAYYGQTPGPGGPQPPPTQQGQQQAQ

[3] = molecular target: T2, Far upstream element-binding protein 2 (Homo sapiens, UniProt Q92945); test: Binding affinity to recombinant full-length KSRP (unknown origin) assessed as dissociation constant by SPR analysis
T2 sequence (Q92945 whole entry): T1 sequence (whole entry)

[4] = molecular target: T1, Far upstream element-binding protein 2 (Homo sapiens); test: Binding affinity to full length KSRP (unknown origin) incubated overnight by SDS-PAGE based immunoblot analysis
[5] = molecular target: T1, Far upstream element-binding protein 2 (Homo sapiens); test: Binding affinity to full-length KSRP (1 to 715 residues) (unknown origin) extracted from Escherichia coli incubated overnight by SDS-PAGE based immunoblot analysis
[6] = molecular target: T1, Far upstream element-binding protein 2 (Homo sapiens); test: Binding affinity to KSRP KH23 domain (214 to 413 residues) (unknown origin) extracted from Escherichia coli incubated overnight by SDS-PAGE based immunoblot analysis

SMILES | IC50 (A549) | IC50 (KB) | IC50 at 2 days [1] | IC50 (NCI-H460) | IC50 (4T1) | IC50 (U-87 MG) | IC50 (MDA-MB-231) | IC50 (MIA PaCa-2) | IC50 (MCF7) | IC50 (HCT-116) | Activity [2] | Kd [3] | Activity [4] | Activity [5] | Activity [6]
COCCNS(=O)(=O)c1ccc(-n2ncc(Cl)c(Cl)c2=O)cc1 | 1.26 µM | 0.47 µM | 4.07 µM | 1.04 µM | 1.72 µM | 0.58 µM | 6.08 µM | 0.39 µM | 4.96 µM | 0.47 µM | – | – | – | – | –
COCC(C)NS(=O)(=O)c1ccc(-n2ncc(Cl)c(Cl)c2=O)cc1 (stereo unspecified) | – | – | – | – | 4.04 µM | – | 16.1 µM | – | 8.17 µM | – | Dose-Dependent Effect | 38.3 µM | – | – | –
CCN(CCOC)S(=O)(=O)c1ccc(-n2ncc(Cl)c(Cl)c2=O)cc1 | – | – | – | – | 1.8 µM | – | > 10 µM | – | > 10 µM | – | – | – | – | – | –
CNCCOc1cnn(-c2ccc(S(=O)(=O)N(C)CCOS(C)(=O)=O)cc2)c(=O)c1Cl | – | – | – | – | > 10 µM | – | > 50 µM | – | > 20 µM | – | – | – | – | – | –
NCCCCNS(=O)(=O)c1ccc(-n2ncc(Cl)c(Cl)c2=O)cc1 | – | – | – | – | > 10 µM | – | > 50 µM | – | > 20 µM | – | – | – | – | – | –
O=C(CCCC[C@@H]1SC[C@@H]2NC(=O)N[C@@H]21)NCCCCNS(=O)(=O)c1ccc(-n2ncc(Cl)c(Cl)c2=O)cc1 | – | 6.77 µM | – | – | 2.15 µM | – | 2.55 µM | 3.22 µM | 8.28 µM | – | – | 17.7 µM | Active | Active | Active
CC(C)C(CO)NS(=O)(=O)c1ccc(-n2ncc(Cl)c(Cl)c2=O)cc1 (stereo unspecified) | 1.27 µM | 0.35 µM | 3.64 µM | 0.74 µM | 1.45 µM | 0.36 µM | 14.3 µM | 0.42 µM | 5.18 µM | 0.36 µM | – | – | – | – | –
CCN(CCCN1CCCC1)S(=O)(=O)c1ccc(-n2ncc(OC)c(Cl)c2=O)cc1 | – | – | – | – | > 20 µM | – | > 20 µM | – | > 20 µM | – | – | – | – | – | –

Source: ChEMBL document CHEMBL6127035, “Novel pyridazinone derivatives bind to KSRP: Synthesis, anti-tumor biological evaluations and modelling insights” (Eur J Med Chem, 2024)
